# Experimental data published in BindingDB's records for doi:10.1016/j.bmcl.2008.12.083 (Merck Research Laboratories, 2009).
# Legend:
# Histone deacetylase 3 = Histone deacetylase 3 (Homo sapiens, UniProt O15379); assay: HDAC Activity Assay; details: 25 °C
# Method: (§1) The Fluor-de-Lys HDAC activity assay kit (Biomol) was used. Purified recombinant HDAC enzyme was incubated with Fluor-de-Lys substrate in the presence of test compounds. Fluor-de-Lys Developer was then added, and the mixture was incubated for another 10 min at room temperature. Fluorescence was measured using a fluorescent plate reader, with excitation 360 nm and emission 460 nm.
# Histone deacetylase 1 = Histone deacetylase 1 (Homo sapiens, UniProt Q13547); assay: HDAC Activity Assay; details: pH 8; 37 °C
# Method: as §1
# Chain of Histone deacetylase 3 (O15379 whole entry): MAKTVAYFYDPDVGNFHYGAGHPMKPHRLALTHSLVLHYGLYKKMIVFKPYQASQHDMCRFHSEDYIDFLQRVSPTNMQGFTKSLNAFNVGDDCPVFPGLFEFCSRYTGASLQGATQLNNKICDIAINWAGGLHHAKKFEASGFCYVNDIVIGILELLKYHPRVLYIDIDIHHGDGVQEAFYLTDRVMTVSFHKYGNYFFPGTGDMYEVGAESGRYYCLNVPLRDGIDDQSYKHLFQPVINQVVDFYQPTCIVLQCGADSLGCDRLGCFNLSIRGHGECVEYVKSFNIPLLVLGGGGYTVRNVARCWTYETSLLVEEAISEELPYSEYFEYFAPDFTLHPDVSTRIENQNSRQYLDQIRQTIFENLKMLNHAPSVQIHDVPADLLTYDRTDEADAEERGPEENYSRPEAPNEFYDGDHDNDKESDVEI
# Chain of Histone deacetylase 1 (Q13547 whole entry): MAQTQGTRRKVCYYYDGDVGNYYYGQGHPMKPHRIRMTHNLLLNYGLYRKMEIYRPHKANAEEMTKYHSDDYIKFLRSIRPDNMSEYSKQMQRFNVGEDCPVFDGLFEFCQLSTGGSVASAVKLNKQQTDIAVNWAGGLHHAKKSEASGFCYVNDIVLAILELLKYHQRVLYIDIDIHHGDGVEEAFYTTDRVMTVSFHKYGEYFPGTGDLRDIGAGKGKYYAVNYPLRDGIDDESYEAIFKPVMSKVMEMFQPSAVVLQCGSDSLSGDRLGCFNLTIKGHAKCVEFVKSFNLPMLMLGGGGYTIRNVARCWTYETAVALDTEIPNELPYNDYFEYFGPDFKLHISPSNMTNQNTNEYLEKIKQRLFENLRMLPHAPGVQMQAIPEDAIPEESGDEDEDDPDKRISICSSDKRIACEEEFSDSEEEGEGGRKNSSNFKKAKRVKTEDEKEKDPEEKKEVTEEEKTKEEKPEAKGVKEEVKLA
IC50 (Histone deacetylase 3) [µM],IC50 (Histone deacetylase 1) [µM],Compound
19.3,–,"Cc1c(CNCc2ccc(C(=O)Nc3cc(-c4ccccc4)ccc3N)cc2)cnn1C [N-(2-amino-5-phenylphenyl)-4-({[(1,5-dimethyl-1H-pyrazol-4-yl)methyl]amino}methyl)benzamide]"
4.8,0.013,"Nc1ccc(-c2ccc(F)cc2)cc1NC(=O)c1ccc(CN2CCC3(CCCN3)CC2)cc1 [N-[2-amino-5-(4-fluorophenyl)phenyl]-4-{1,8-diazaspiro[4.5]decan-8-ylmethyl}benzamide]"
